Measurements: paper PMC11222147, “Host defence peptide plectasin targets bacterial cell wall precursor lipid II by a calcium-sensitive supramolecular mechanism” (Nature Microbiology, 2024)
In brackets after ≈: the same amount, converted by molar mass. Read-outs that look alike come from different tables or passages of the source. Where a SMILES comes first, the peptide text is derived from it. Bridges are numbered along the chain shown (N, C = ends).

Assays:
S. simulans 22 = experiment: MIC assays under standard conditions; assay type: cell-based, Staphylococcus simulans; settings: for Minimum inhibitory concentration, S. simulans / MIC: cation-adjusted MHB, 37 °C; for MIC: Staphylococcus simulans, 22
Description: (§1) Plectasin and analogues were serially diluted in cation-adjusted Mueller–Hinton broth (MHB) in round-bottom polypropylene 96-well plates (50 µl per well). Selected bacterial strains were grown from glycerol stocks on blood agar plates. Individual colonies were inoculated in TSB and incubated at 37 °C while shaking until OD600 reached 0.5. Bacterial suspensions were then diluted 100 times in cation-adjusted MHB and distributed (50 μl per well) over the microplate containing the diluted plectasin solutions. Plates were covered by a gas-permeable adhesive membrane and incubated at 37 °C while shaking. MICs were determined by visual inspection after 16–20 h (Staphylococcus) or 20–24 h (Streptococcus). For Streptococcus strains, the broth was additionally supplemented with 5% lysed horse blood, and the microplates were incubated under 5% CO2 atmosphere. In the assays, we used the following strains: S. simulans, S. pneumoniae serotype 8, S. pneumoniae ATCC6305 and Streptococcus pyogenes M3.

S. pneumoniae ATCC6305 = experiment: MIC assays under standard conditions; assay type: cell-based, Streptococcus pneumoniae; settings: Supplementary Table 1, cation-adjusted MHB + 5% lysed horse blood, 5% CO2, 20–24 h
Description: as §1

Question: How did the “Minimum inhibitory concentration, S. simulans” value (S. simulans 22; Supplementary Table 1, 16–20 h) turn out when `CC[C@H](C)[C@@H]1NC(=O)[C@H](CO)NC(=O)[C@H](CCCCN)NC(=O)[C@@H]2CSSC[C@@H](C(=O)N[C@@H](Cc3ccc(O)cc3)C(=O)O)NC(=O)[C@H](CCCCN)NC(=O)[C@@H]3CSSC[C@H](NC(=O)[C@H](CCC(N)=O)NC(=O)[C@H](CCSC)NC(=O)[C@H](CC(=O)O)NC(=O)[C@H](CC(=O)O)NC(=O)[C@H](CCC(=O)O)NC(=O)[C@H](CC(=O)O)NC(=O)[C@H](Cc4c[nH]c5ccccc45)NC(=O)[C@@H]4CCCN4C(=O)CNC(=O)[C@H](CC(N)=O)NC(=O)[C@@H](NC(=O)CNC(=O)[C@H](Cc4ccccc4)NC(=O)CN)CSSC[C@H](NC(=O)[C@H](Cc4ccc(O)cc4)NC(=O)CNC(=O)CNC(=O)[C@H](C)NC(=O)[C@H](Cc4ccc(O)cc4)NC(=O)CNC(=O)[C@H](CCCCN)NC1=O)C(=O)N[C@@H](C)C(=O)N[C@@H](CCCCN)C(=O)NCC(=O)NCC(=O)N[C@@H](Cc1ccccc1)C(=O)N[C@@H](C(C)C)C(=O)N3)C(=O)N[C@@H](Cc1c[nH]cn1)C(=O)N[C@@H](CC(N)=O)C(=O)N[C@@H](Cc1c[nH]cn1)C(=O)N2` [K26A] (H-GFGCNGPWDEDDMQCHNHCKSIKGYAGGYCAKGGFVCKCY-OH; disulfide 4-30, 15-37, 19-39 (inferred); N-terminus and C-terminus assumed) was run?
Answer: 3,13 μg/mL

Question: What about the “reduction in activity vs plectasin” value (S. simulans 22; from MIC of Table 1) of the same molecule?
Answer: fivefold to tenfold

Question: What about the “Minimum inhibitory concentration, S. pneumoniae ATCC6305” value (S. pneumoniae ATCC6305) of the same molecule?
Answer: 3,13 μg/mL

Question: With `CC[C@H](C)[C@@H]1NC(=O)[C@H](CO)NC(=O)[C@H](CCCCN)NC(=O)[C@@H]2CSSC[C@@H](C(=O)N[C@@H](Cc3ccc(O)cc3)C(=O)O)NC(=O)[C@H](CCCCN)NC(=O)[C@@H]3CSSC[C@H](NC(=O)[C@H](CCC(N)=O)NC(=O)[C@H](CCSC)NC(=O)[C@H](CC(=O)O)NC(=O)[C@H](CC(=O)O)NC(=O)[C@H](CCC(=O)O)NC(=O)[C@H](CC(=O)O)NC(=O)[C@H](Cc4c[nH]c5ccccc45)NC(=O)[C@@H]4CCCN4C(=O)CNC(=O)[C@H](CC(N)=O)NC(=O)[C@@H](NC(=O)CNC(=O)[C@H](Cc4ccccc4)NC(=O)CN)CSSC[C@H](NC(=O)[C@H](C)NC(=O)CNC(=O)CNC(=O)[C@H](CCCCN)NC(=O)[C@H](Cc4ccc(O)cc4)NC(=O)CNC(=O)[C@H](CCCCN)NC1=O)C(=O)N[C@@H](C)C(=O)N[C@@H](CCCCN)C(=O)NCC(=O)NCC(=O)N[C@@H](Cc1ccccc1)C(=O)N[C@@H](C(C)C)C(=O)N3)C(=O)N[C@@H](Cc1c[nH]cn1)C(=O)N[C@@H](CC(N)=O)C(=O)N[C@@H](Cc1c[nH]cn1)C(=O)N2` [Y29A] (H-GFGCNGPWDEDDMQCHNHCKSIKGYKGGACAKGGFVCKCY-OH; disulfide 4-30, 15-37, 19-39 (inferred); N-terminus and C-terminus assumed) as the molecule, how does the “Minimum inhibitory concentration, S. simulans” value (S. simulans 22; Supplementary Table 1, 16–20 h) read?
Answer: 12,5 μg/mL

Question: What about the “Minimum inhibitory concentration, S. pneumoniae ATCC6305” value (S. pneumoniae ATCC6305) of the same molecule?
Answer: > 50 µg/mL

Question: For `CC[C@H](C)[C@@H]1NC(=O)[C@H](CO)NC(=O)[C@H](CCCCN)NC(=O)[C@@H]2CSSC[C@@H](C(=O)N[C@@H](Cc3ccc(O)cc3)C(=O)O)NC(=O)[C@H](CCCCN)NC(=O)[C@@H]3CSSC[C@H](NC(=O)[C@H](CCC(N)=O)NC(=O)[C@H](CCSC)NC(=O)[C@H](CC(=O)O)NC(=O)[C@H](CC(=O)O)NC(=O)[C@H](CCC(=O)O)NC(=O)[C@H](CC(=O)O)NC(=O)[C@H](Cc4c[nH]c5ccccc45)NC(=O)[C@@H]4CCCN4C(=O)CNC(=O)[C@H](CC(N)=O)NC(=O)[C@@H](NC(=O)CNC(=O)[C@H](Cc4ccccc4)NC(=O)CN)CSSC[C@H](NC(=O)[C@H](Cc4ccccc4)NC(=O)CNC(=O)CNC(=O)[C@H](CCCCN)NC(=O)[C@H](Cc4ccc(O)cc4)NC(=O)CNC(=O)[C@H](CCCCN)NC1=O)C(=O)N[C@@H](C)C(=O)N[C@@H](CCCCN)C(=O)NCC(=O)NCC(=O)N[C@@H](Cc1ccccc1)C(=O)N[C@@H](C(C)C)C(=O)N3)C(=O)N[C@@H](Cc1c[nH]cn1)C(=O)N[C@@H](CC(N)=O)C(=O)N[C@@H](Cc1c[nH]cn1)C(=O)N2` [Y29F] (H-GFGCNGPWDEDDMQCHNHCKSIKGYKGGFCAKGGFVCKCY-OH; disulfide 4-30, 15-37, 19-39 (inferred); N-terminus and C-terminus assumed), which “Minimum inhibitory concentration, S. simulans” value (S. simulans 22; Supplementary Table 1, 16–20 h) is on record?
Answer: 1,56 μg/mL

Question: What about the “Minimum inhibitory concentration, S. pneumoniae ATCC6305” value (S. pneumoniae ATCC6305) of the same molecule?
Answer: ≤ 0.78 µg/mL

Question: How did the “Minimum inhibitory concentration, S. simulans” value (S. simulans 22; Supplementary Table 1, 16–20 h) turn out when `CC[C@H](C)[C@@H]1NC(=O)[C@H](CO)NC(=O)[C@H](CCCCN)NC(=O)[C@@H]2CSSC[C@@H](C(=O)N[C@@H](CCCNC(=N)N)C(=O)O)NC(=O)[C@H](CCCCN)NC(=O)[C@@H]3CSSC[C@H](NC(=O)[C@H](CCC(N)=O)NC(=O)[C@H](CCSC)NC(=O)[C@H](CC(=O)O)NC(=O)[C@H](CC(=O)O)NC(=O)[C@H](CCC(=O)O)NC(=O)[C@H](CC(=O)O)NC(=O)[C@H](Cc4c[nH]c5ccccc45)NC(=O)[C@@H]4CCCN4C(=O)CNC(=O)[C@H](CC(N)=O)NC(=O)[C@@H](NC(=O)CNC(=O)[C@H](Cc4ccccc4)NC(=O)CN)CSSC[C@H](NC(=O)[C@H](Cc4ccc(O)cc4)NC(=O)CNC(=O)CNC(=O)[C@H](CCCCN)NC(=O)[C@H](Cc4ccc(O)cc4)NC(=O)CNC(=O)[C@H](CCCCN)NC1=O)C(=O)N[C@@H](C)C(=O)N[C@@H](CCCCN)C(=O)NCC(=O)NCC(=O)N[C@@H](Cc1ccccc1)C(=O)N[C@@H](C(C)C)C(=O)N3)C(=O)N[C@@H](Cc1c[nH]cn1)C(=O)N[C@@H](CC(N)=O)C(=O)N[C@@H](Cc1c[nH]cn1)C(=O)N2` [Y40R] (H-GFGCNGPWDEDDMQCHNHCKSIKGYKGGYCAKGGFVCKCR-OH; disulfide 4-30, 15-37, 19-39 (inferred); N-terminus and C-terminus assumed) was run?
Answer: > 50 µg/mL

Question: What about the “Minimum inhibitory concentration, S. pneumoniae ATCC6305” value (S. pneumoniae ATCC6305) of the same molecule?
Answer: > 50 µg/mL

Question: For `CN[C@H](CC(C)C)C(=O)N[C@H]1C(=O)N[C@@H](CC(N)=O)C(=O)N[C@H]2C(=O)N[C@H]3C(=O)N[C@H](C(=O)N[C@H](C(=O)O)c4cc(O)cc(O)c4-c4cc3ccc4O)[C@H](O)c3ccc(c(Cl)c3)Oc3cc2cc(c3O[C@@H]2O[C@H](CO)[C@@H](O)[C@H](O)[C@H]2O[C@H]2C[C@](C)(N)[C@H](O)[C@H](C)O2)Oc2ccc(cc2Cl)[C@H]1O` [Vancomycin, reference compound], which MIC (S. simulans 22; Supplementary Table 1, 16–20 h, read-out: Minimum inhibitory concentration, S. simulans) is on record?
Answer: 0.78 µg/mL (≈ 0.538 µM)

Question: And the MIC (S. simulans 22; standard conditions, visual inspection after 16–20 h, read-out: MIC)?
Answer: 0.78 µg/mL (≈ 0.538 µM)

Question: And the MIC (S. pneumoniae ATCC6305; Streptococcus pneumoniae, ATCC6305, read-out: Minimum inhibitory concentration, S. pneumoniae ATCC6305)?
Answer: < 0.78 µg/mL

Question: `CC[C@H](C)[C@@H]1NC(=O)[C@H](CO)NC(=O)[C@H](CCCCN)NC(=O)[C@@H]2CSSC[C@@H](C(=O)N[C@@H](Cc3ccc(O)cc3)C(=O)O)NC(=O)[C@H](CCCCN)NC(=O)[C@@H]3CSSC[C@H](NC(=O)[C@H](CCC(N)=O)NC(=O)[C@H](CCSC)NC(=O)[C@H](CC(=O)O)NC(=O)[C@H](CC(=O)O)NC(=O)[C@H](CCC(=O)O)NC(=O)[C@H](CC(=O)O)NC(=O)[C@H](Cc4c[nH]c5ccccc45)NC(=O)[C@@H]4CCCN4C(=O)CNC(=O)[C@H](CC(N)=O)NC(=O)[C@@H](NC(=O)CNC(=O)[C@H](Cc4ccccc4)NC(=O)CN)CSSC[C@H](NC(=O)[C@H](Cc4ccc(O)cc4)NC(=O)CNC(=O)CNC(=O)[C@H](CCCCN)NC(=O)[C@H](CC(C)C)NC(=O)CNC(=O)[C@H](CCCCN)NC1=O)C(=O)N[C@@H](C)C(=O)N[C@@H](CCCCN)C(=O)NCC(=O)NCC(=O)N[C@@H](Cc1ccccc1)C(=O)N[C@@H](C(C)C)C(=O)N3)C(=O)N[C@@H](Cc1c[nH]cn1)C(=O)N[C@@H](CC(N)=O)C(=O)N[C@@H](Cc1c[nH]cn1)C(=O)N2` [Y25L] (H-GFGCNGPWDEDDMQCHNHCKSIKGLKGGYCAKGGFVCKCY-OH; disulfide 4-30, 15-37, 19-39 (inferred); N-terminus and C-terminus assumed) was tested. Which “Minimum inhibitory concentration, S. simulans” value (S. simulans 22; Supplementary Table 1, 16–20 h) did it give?
Answer: 3,13 μg/mL

Question: `CSCC[C@@H]1NC(=O)[C@H](CC(=O)O)NC(=O)[C@H](CC(=O)O)NC(=O)[C@H](CCC(=O)O)NC(=O)[C@H](CC(=O)O)NC(=O)[C@H](Cc2c[nH]c3ccccc23)NC(=O)[C@@H]2CCCN2C(=O)CNC(=O)[C@H](CC(N)=O)NC(=O)[C@@H](NC(=O)CNC(=O)[C@H](Cc2ccccc2)NC(=O)CN)CSSC[C@@H]2NC(=O)[C@H](Cc3ccc(O)cc3)NC(=O)CNC(=O)CNC(=O)[C@H](CCCCN)NC(=O)[C@H](Cc3ccc(O)cc3)NC(=O)CNC(=O)[C@H](CCCCN)NC(=O)[C@H](CC(C)C)NC(=O)[C@H](CO)NC(=O)[C@H](CCCCN)NC(=O)[C@@H]3CSSC[C@@H](C(=O)N[C@@H](Cc4ccc(O)cc4)C(=O)O)NC(=O)[C@H](CCCCN)NC(=O)[C@H](CSSC[C@H](NC(=O)[C@H](CCC(N)=O)NC1=O)C(=O)N[C@@H](Cc1c[nH]cn1)C(=O)N[C@@H](CC(N)=O)C(=O)N[C@@H](Cc1c[nH]cn1)C(=O)N3)NC(=O)[C@H](C(C)C)NC(=O)[C@H](Cc1ccccc1)NC(=O)CNC(=O)CNC(=O)[C@H](CCCCN)NC(=O)[C@H](C)NC2=O` [I22L] (H-GFGCNGPWDEDDMQCHNHCKSLKGYKGGYCAKGGFVCKCY-OH; disulfide 4-30, 15-37, 19-39 (inferred); N-terminus and C-terminus assumed) was tested. Which “Minimum inhibitory concentration, S. simulans” value (S. simulans 22; Supplementary Table 1, 16–20 h) did it give?
Answer: 1,56 μg/mL
